Results published in patent publication US20250152650A1, “COMPOSITIONS FOR TREATING SEA LICE IN SALMON AND RELATED METHODS” (KEMIN INDUSTRIES, INC., priority 2023, published 2025).
Read-outs that look alike come from different tables or passages of the source.

Columns and labels:
[1] = system: L. salmonis copepodids of Canadian origin; assay: Copepodid bioassay, copepodids of Canadian origin; set-up: species or system Lepeophtheirus salmonis; details: for Mean proportion of survival: 24 hours exposure
[2] = system: mobile stage sea lice (adults and pre-adults); assay: Mobile stages bioassay; set-up: species or system Lepeophtheirus salmonis
copepodid sea lice = details: 10 parts per trillion, purified compounds; cited from earlier work
sea lice = assay: In-feed trial with sea lice challenge in Atlantic salmon; format: in vivo, Atlantic salmon (Salmo salar); details: for Reduction Versus Control: reduction in mean number of lice at 6-7 dpi versus Control Diet; for Reduction Versus Control / Reduction Versus SLICE: diet doses as in Table 10; for Reduction Versus SLICE: reduction in mean number of lice at 6-7 dpi versus SLICE (10 ppm) diet; for Mean Number of Lice: total copepodid and chalimus lice per fish at 6-7 dpi, study diet fed 3 weeks before challenge with approx. 140 lice per fish, O-LD oregano oil 2000 ppm, O-HD 5000 ppm, M-LD Monarda fistulosa oil 2000 ppm, thymol 1000 ppm, thymoquinone 500 ppm, SLICE 10 ppm
[3] = system: copepodids of Norwegian origin; details: for Mean proportion of survival: 24 hours exposure
[4] = system: copepodids of Norwegian origin; assay: whole plant or invertebrate; details: Lepeophtheirus salmonis, 24 h, read-out: lethality / lice mortality
salmon = details: farmed salmon; cited from earlier work

Row | Molecule | Mean proportion of survival ([2]; 10 ppm, 6 hours exposure) | Mean proportion of survival ([2]; 10 ppm, 24 hours exposure) | masking of copepodid attraction to hosts or alpha-isophorone conditioned seawater (copepodid sea lice) | Mean proportion of survival ([2]; 1 ppb, 6 hours exposure) | Mean proportion of survival ([2]; 1 ppb, 24 hours exposure) | Mean proportion of survival ([2]; 1 ppm, 6 hours exposure) | Mean proportion of survival ([2]; 1 ppm, 24 hours exposure) | Mean proportion of survival ([2]; 10 ppb, 6 hours exposure) | Mean proportion of survival ([2]; 10 ppb, 24 hours exposure) | Mean proportion of survival ([2]; 100 ppb, 6 hours exposure) | Mean proportion of survival ([2]; 100 ppb, 24 hours exposure) | Reduction Versus Control (sea lice) | Reduction Versus SLICE (sea lice) | Mean Number of Lice (sea lice) | Mean proportion of survival ([3]; 0.01 ppb) | Mean proportion of survival ([3]; 0.1 ppb) | Mean proportion of survival ([3]; 1 ppb) | Mean proportion of survival ([3]; 1 ppm) | Mean proportion of survival ([3]; 10 ppb) | Mean proportion of survival ([3]; 10 ppm) | also measured
1 | C=CCSSCC=C [Diallyl disulfide, diallyl disulfide] | 100.0 ± 0.0% | 96.7 ± 4.7% | masked copepodid sea lice attraction to hosts |  |  |  |  |  |  |  |  |  |  |  |  |  |  |  |  |  | Mean proportion of survival ([1]; 1 ppb): 96.9 ± 2.7%; Mean proportion of survival ([1]; 1 ppm): 86.3 ± 4.0%; Mean proportion of survival ([1]; 10 ppb): 93.6 ± 8.0%; Mean proportion of survival ([1]; 10 ppm): 34.6 ± 6.4%; Mean proportion of survival ([1]; 10 ppm, listed as DD): 34.6%; Mean proportion of survival ([1]; 100 ppb): 95.2 ± 4.6%; Mean proportion of survival ([1]; 100 ppm (0.01%)): 17.4 ± 3.2%; Mean proportion of survival ([1]; 100 ppm (0.01%), listed as DD): 17.4%; survival compared to control, in words ([2]; 10 and 100 ppm): did not result in different survival compared to control; Mean proportion of survival ([2]; 100 ppm, 6 hours exposure): 96.2 ± 5.4%; Mean proportion of survival ([2]; 100 ppm, 24 hours exposure): 88.7 ± 5.8%
2 | Cc1ccc(C(C)C)c(O)c1 [Thymol] | 23.7 ± 6.9% |  |  | 100.0 ± 0.0% | 96.2 ± 5.4% | 92.8 ± 0.7% | 92.8 ± 0.7% | 95.8 ± 5.9% | 88.1 ± 5.0% | 97.1 ± 4.2% | 97.1 ± 4.2% | 1.2% | −14.6% | 86.5 | 98.7 ± 2.2% | 93.9 ± 4.4% | 100.0 ± 0.0% | 87.9 ± 3.9% | 93.1 ± 9.3% | 56.1 ± 2.0 % | Mean proportion of survival ([2]; 1 ppm, 24 hours exposure, listed as thymol): not significantly different to control; Mean proportion of survival ([3]; 100 ppb): 84.4 ± 6.1%
3 | CC1=CC(=O)C(C(C)C)=CC1=O [Thymoquinone] | 60.7 ± 5.1% | 0.0 ± 0.0 % |  | 93.3 ± 9.4% | 93.3 ± 9.4% | 100.0 ± 0.0% | 83.7 ± 14.7% | 81.7 ± 5.4% | 87.1 ± 5.4% | 91.7 ± 2.4% | 91.7 ± 2.4% | 1.7% | 21.7% | 59.1 | 98.1 ± 3.2% | 98.6 ± 2.4% | 97.3 ± 2.5% | 75.6 ± 9.3 % | 100.0 ± 0.0% | 0.0 ± 0.0 % | Mean proportion of survival ([2]; 1 ppm, 24 hours exposure, listed as thymoquinone): not significantly different to control; Mean proportion of survival ([2]; 10 ppm, 24 hours exposure, listed as thymoquinone): completely lethal; Mean proportion of survival ([3]; 1 ppm, listed as thymoquinone): did not result in a biologically significant reduction in survival; Mean proportion of survival ([3]; 100 ppb): 92.9 ± 9.1%; mortality at 10 ppm [4]: 100%
4 | emamectin benzoate [EMB, reference compound] |  |  |  |  |  |  |  |  |  | 96.7 ± 4.7% |  |  |  |  |  | 0.0 ± 0.0% | 0.0 ± 0.0% |  | 0.0 ± 0.0% |  | survival, range over the dilution set ([1]; 0.5-50 ppb, 24 hours): 35.5-53.2%; Mean proportion of survival ([1]; 0.5 ppb): 53.2 ± 10.2%; Mean proportion of survival ([1]; 5 ppb): 50.7 ± 6.1%; Mean proportion of survival ([1]; 50 ppb): 35.5 ± 2.1%; Mean proportion of survival ([2]; 200 ppb, 6 hours exposure): 56.7 ± 4.7%; Mean proportion of survival ([2]; 200 ppb, 24 hours exposure): 53.3 ± 18.9%; Mean proportion of survival ([2]; 400 ppb, 6 hours exposure): 36.7 ± 14.1%; Mean proportion of survival ([2]; 400 ppb, 24 hours exposure): 23.3 ± 4.7%; Mean proportion of survival ([2]; 500 ppb, 24 hours, follow up trial): 46.9 ± 9.8%; survival, in words ([3]; all tested concentrations between 10 and 0.1 ppb): no survival
5 | OO [hydrogen peroxide] |  |  |  |  |  |  |  |  |  |  |  |  |  |  |  |  |  |  |  |  | mortality caused by a single treatment (salmon): 1%
6 | C=CCSCC=C [diallyl sulfide] |  |  | masked copepodid sea lice attraction to hosts |  |  |  |  |  |  |  |  |  |  |  |  |  |  |  |  |  | 
